Source: the supplement of paper PMC4862054

What was measured:
Details in all cases: incubation time: 72 h
SK-BR-3 [1] = assay: normalised response (% of control), CellTiter-Glo; higher = more viable cells (100 = DMSO, 0 = benzethonium chloride kill control)
Method in brief: (§1)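 Breast cancer cell lines, seeded at 20 µl suspension per well, were incubated for 72 h in 384-well plates containing compound at 5 concentrations. These concentrations rose in 10-fold steps over a 10,000-fold range set for each compound. CellTox Green fluorescence (485/520 nm) was read, then CellTiter-Glo luminescence after 10 min at room temperature, and each plate was normalised to 0.1 % DMSO (100) and a positive kill control (0). Values are normalised signals, each at one concentration.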

HCC1937 [2] = assay: as above
Method in brief: as §1

HCC1599 [3] = assay: as above
Method in brief: as §1

DU-4475 [4] = assay: as above
Method in brief: as §1

HCC1143 [5] = assay: as above
Method in brief: as §1

MDA-MB-231 [6] = assay: as above
Method in brief: as §1

BT-474 [7] = assay: as above
Method in brief: as §1

HDQ-P1 [8] = assay: as above
Method in brief: as §1

MDA-MB-453 [9] = assay: as above
Method in brief: as §1

MFM-223 [10] = assay: as above
Method in brief: as §1

MDA-MB-436 [11] = assay: as above
Method in brief: as §1

MDA-MB-468 [12] = assay: as above
Method in brief: as §1

Hs578T [13] = assay: as above
Method in brief: as §1

CAL-51 [14] = assay: as above
Method in brief: as §1

MCF-10A = assay: as above
Method in brief: as §1

CAL-85-1 [15] = assay: as above
Method in brief: as §1

BT-549 [16] = assay: as above
Method in brief: as §1

CAL-148 [17] = assay: as above
Method in brief: as §1

CAL-120 [18] = assay: as above
Method in brief: as §1

SK-BR-3 [19] = assay: normalised viability (% of control), CellTiter-Blue; higher = more viable cells (100 = DMSO, 0 = benzethonium chloride kill control)
Description: (§2)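 DSRT, CellTiter-Blue viability, 72 h incubation. Signal is normalised to DMSO and benzethonium chloride controls. Value is the normalised response at dose 1.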

HCC1937 [20] = assay: as above
Description: as §2

HCC1599 [21] = assay: as above
Description: as §2

DU-4475 [22] = assay: as above
Description: as §2

HCC1143 [23] = assay: as above
Description: as §2

MDA-MB-231 [24] = assay: as above
Description: as §2

BT-474 [25] = assay: as above
Description: as §2

HDQ-P1 [26] = assay: as above
Description: as §2

MDA-MB-453 [27] = assay: as above
Description: as §2

MFM-223 [28] = assay: as above
Description: as §2

MDA-MB-436 [29] = assay: as above
Description: as §2

MDA-MB-468 [30] = assay: as above
Description: as §2

Hs578T [31] = assay: as above
Description: as §2

CAL-51 [32] = assay: as above
Description: as §2

CAL-85-1 [33] = assay: as above
Description: as §2

BT-549 [34] = assay: as above
Description: as §2

CAL-148 [35] = assay: as above
Description: as §2

CAL-120 [36] = assay: as above
Description: as §2

| SMILES | normalised response (SK-BR-3 [1]) [%] | normalised response (HCC1937 [2]) [%] | normalised response (HCC1599 [3]) [%] | normalised response (DU-4475 [4]) [%] | normalised response (HCC1143 [5]) [%] | normalised response (MDA-MB-231 [6]) [%] | normalised response (BT-474 [7]) [%] | normalised response (HDQ-P1 [8]) [%] | normalised response (MDA-MB-453 [9]) [%] | normalised response (MFM-223 [10]) [%] | normalised response (MDA-MB-436 [11]) [%] | normalised response (MDA-MB-468 [12]) [%] | normalised response (Hs578T [13]) [%] | normalised response (CAL-51 [14]) [%] | normalised response (MCF-10A) [%] | normalised response (CAL-85-1 [15]) [%] | normalised response (BT-549 [16]) [%] | normalised response (CAL-148 [17]) [%] | normalised response (CAL-120 [18]) [%] | normalised viability (SK-BR-3 [19]) [%] | normalised viability (HCC1937 [20]) [%] | normalised viability (HCC1599 [21]) [%] | normalised viability (DU-4475 [22]) [%] | normalised viability (HCC1143 [23]) [%] | normalised viability (MDA-MB-231 [24]) [%] | normalised viability (BT-474 [25]) [%] | normalised viability (HDQ-P1 [26]) [%] | normalised viability (MDA-MB-453 [27]) [%] | normalised viability (MFM-223 [28]) [%] | normalised viability (MDA-MB-436 [29]) [%] | normalised viability (MDA-MB-468 [30]) [%] | normalised viability (Hs578T [31]) [%] | normalised viability (CAL-51 [32]) [%] | normalised viability (CAL-85-1 [33]) [%] | normalised viability (BT-549 [34]) [%] | normalised viability (CAL-148 [35]) [%] | normalised viability (CAL-120 [36]) [%] |
| --- | --- | --- | --- | --- | --- | --- | --- | --- | --- | --- | --- | --- | --- | --- | --- | --- | --- | --- | --- | --- | --- | --- | --- | --- | --- | --- | --- | --- | --- | --- | --- | --- | --- | --- | --- | --- | --- |
| C=CCNC1=C2C[C@@H](C)C[C@H](OC)[C@H](O)[C@@H](C)/C=C(\C)[C@H](OC(N)=O)[C@@H](OC)/C=C\C=C(/C)C(=O)NC(=CC1=O)C2=O [Tanespimycin] (1 nM) | 96.8 | 94.7 | 102 | 99 | 95.8 | 98.9 | 91.9 | 99.4 | 104 | 94 | 86.8 | 107 | 104 | 104 | 99.1 | 107 | 105 | 92.6 | 92.5 | 93 | 86.4 | 94.7 | 118 | 87.4 | 98.2 | 97.3 | 105 | 108 | 90.8 | 110 | 103 | 101 | 115 | 92.6 | 113 | 115 | 77.1 |
| C[C@]1(c2nc3c(C(N)=O)cccc3[nH]2)CCCN1 [Veliparib] (1 nM) | 102 | 96.8 | 96.4 | 106 | 101 | 102 | 107 | 101 | 109 | 101 | 91.4 | 111 | 101 | 92.2 | 97 | 111 | 104 | 103 | 97.3 | 96.9 | 77.1 | 83.5 | 99 | 79.1 | 94.3 | 89.8 | 75.1 | 93.3 | 94.1 | 93.7 | 97.7 | 94.8 | 112 | 78.4 | 112 | 101 | 68.6 |
| CC[C@]1(O)C[C@@H]2CN(CCc3c([nH]c4ccccc34)[C@@](C(=O)OC)(c3cc4c(cc3OC)N(C)[C@H]3[C@@](O)(C(=O)OC)[C@H](OC(C)=O)[C@]5(CC)C=CCN6CC[C@]43[C@@H]65)C2)C1 [Vinblastine] (0.1 nM) | 100 | 93.9 | 106 | 101 | 99 | 94.9 | 96.2 | 99.4 | 103 | 93.1 | 95.8 | 98.8 | 99.5 | 103 | 101 | 97.4 | 102 | 96.6 | 95.9 | 85.8 | 97.1 | 90.7 | 104 | 78.6 | 83.1 | 87.9 | 102 | 98.5 | 90 | 103 | 98.8 | 103 | 114 | 85.8 | 96.6 | 92.5 | 82.1 |
| CS(=O)(=O)c1ccc(C(=O)Nc2ccc(Cl)c(-c3ccccn3)c2)c(Cl)c1 [Vismodegib] (1 nM) | 91.6 | 92.3 | 101 | 98.9 | 94.3 | 95.5 | 90.9 | 96.7 | 89.3 | 86.8 | 100 | 98.7 | 95.9 | 120 | 94 | 99.2 | 93.1 | 103 | 92.8 | 93.7 | 103 | 105 | 103 | 94.9 | 100 | 103 | 75.3 | 103 | 96 | 94.2 | 99.6 | 115 | 108 | 104 | 88.3 | 94.9 | 86.2 |
